In article PMC9685055, “Biological activity of new bioactive steroids deriving from biotransformation of cortisone” (Microbial Cell Factories, 2022):
Blank lines part the entries; values can stand above or below the molecule they belong to.

Assays:
cyclooxygenase (COX) = molecular target: T1, cyclooxygenase (COX) (Ovis aries, UniProt P05979); assay: Cyclooxygenase inhibitory assay (fluorescence COX activity kit); type: biochemical; conditions: purified COX preparation, 50 µM, positive control
T1 construct: purchased Cayman 700200
T1 sequence (P05979 25-600): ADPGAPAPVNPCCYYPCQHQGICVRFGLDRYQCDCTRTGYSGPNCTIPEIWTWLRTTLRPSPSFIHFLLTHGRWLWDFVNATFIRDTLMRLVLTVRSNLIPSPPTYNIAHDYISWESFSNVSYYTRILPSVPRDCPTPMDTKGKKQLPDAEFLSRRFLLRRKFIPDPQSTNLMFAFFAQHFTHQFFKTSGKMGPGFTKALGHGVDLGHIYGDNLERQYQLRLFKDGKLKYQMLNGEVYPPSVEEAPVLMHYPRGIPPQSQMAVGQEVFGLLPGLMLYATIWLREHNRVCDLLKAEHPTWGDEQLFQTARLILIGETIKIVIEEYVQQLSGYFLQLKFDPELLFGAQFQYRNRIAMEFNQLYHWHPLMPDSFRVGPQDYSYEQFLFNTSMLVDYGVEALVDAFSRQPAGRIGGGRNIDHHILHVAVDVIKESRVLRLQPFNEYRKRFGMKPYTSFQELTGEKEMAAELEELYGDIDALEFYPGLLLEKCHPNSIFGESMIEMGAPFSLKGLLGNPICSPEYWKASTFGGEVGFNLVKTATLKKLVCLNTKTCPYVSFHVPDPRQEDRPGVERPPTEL
Description: Cyclooxygenase (COX) activity assay was determined by using a fluorescence COX activity assay kit (Cayman, No. 700200) for detecting COX-1 and COX-2 activity in purified enzyme and tissue homogenate preparations. The assay was conducted by monitoring the appearance of fluorescent compound resofurin in accordance to the supplier recommendation. Aspirin (acetylsalicylic acid; 50 µM) served as positive control. The test compounds were dissolved in 1–2% DMSO (v/v) at 4 different concentrations (0.1, 1, 10 and 100 µM) and added to a purified COX preparation. A 1–2% DMSO solution was added to control plates. The plates were shaken for a few seconds and incubated for 5 min at 25 °C. The fluorescence was measured by using an excitation wavelength of 540 nm and an emission wavelength of 590 nm. Average fluorescent values were calculated for all the samples (n = 3/group) in order to determine the percentage of inhibition in respect to control (i.e. untreated) plates.

[1] = system: p65 NF-κB nuclear translocation in HaCaT cells; assay: TNFα-induced p65 NF-κB nuclear translocation, immunofluorescence; type: cell-based; conditions: positive control (betamethasone-17-valerate 10 µg/mL), then 10 ng/mL TNFα 1 h
Description: HaCaT cells were cultured with Dulbecco’s modified Eagle’s medium High Glucose (Lonza, Milan, Italy) supplemented with 10% FBS, 100 U/mL penicillin, 100 μg/mL streptomycin and 2 mM L-glutamine as previously described. Cells were maintained in a humidified incubator at 37 °C with 5% CO2 and incubated until the monolayer was 80% confluent. Medium was changed every 2 days.
HaCaT cells were pretreated with or without 10 μM of both SCA and SCB for 24 h. Stock solutions of the two compounds were prepared in DMSO immediately before use and diluted to the final concentration in the culture medium. In some sets of experiments, betamethasone-17-valerate (10 µg/mL) served as a positive control; dimethyl sulfoxide (DMSO) served as a solvent control. After the pretreatments, cells were stimulated with 10 ng/mL TNFα for 1 h to induce the NFκB signaling pathway. Then, media were replaced with fresh culture medium. Cells and supernatants were collected at different time points for each set of experiments as described below.
Briefly, HaCaT cells were seeded on coverslips at a density of 1 × 10^5 cell/mL and incubated with DMEM high glucose supplemented with FBS 10%. Then, HaCaT cells were treated as indicated above. At the end of the proinflammatory stimulus with TNFα, cells were fixed in 4% paraformaldehyde in PBS for 30 min at 4 °C as previously described. HaCaT cells were permeabilized for 5 min at RT with PBS containing 0.2% Triton X-100. After the blocking with 1% BSA in PBS at RT for 1 h, HaCaT cells were incubated with p65 NF-κB primary antibody (1:100, sc-372; Santa Cruz Biotechnology, Inc., Dallas, Texas, USA) in PBS containing 0.5% BSA at 4 °C overnight. After washing, coverslips were incubated with appropriate secondary antibody for 1 h at RT. Nuclei were stained with 1 μg/mL DAPI (Sigma- Aldrich, Italy) for 1 min. […] Fluorescence was examined using an Epifluorescence microscope (Nikon Eclipse E800; Nikon Corporation, Surrey, UK) equipped with a plan apochromat 100 × 0.5 − 1.3 oil immersion objective and a mercury lamp source.

[2] = Photochemiluminescence (PCL-ACL) antioxidant assay; conditions: 0.1 mg/mL; Trolox equivalents per g of sample
Description: Photochemiluminescence assay, based on the methodology of Popov and Lewin [35], was performed to measure the antioxidant activity of cortisone, SCA and SCB compounds against superoxide anion radicals generated from luminol, a photosensitizer, when exposed to UV light at λmax = 351 nm. The antioxidant activity of compounds was measured using ACL kits (Analytic Jena, Jena, Germany) with a Photochem apparatus (Analytic Jena, Jena, Germany). In the PCL-ACL assay, the photochemical generation of free radicals is combined with the sensitive detection using chemiluminescence. In ACL studies, the kinetic light emission curve was monitored for 3 min and expressed as mM Trolox equivalents. The areas under the curves were calculated using the PCL soft control and analysis software. […] The observed inhibition of the signal was plotted against the concentration of Trolox added to the assay medium. The concentration of the added sample was such that the generated luminescence during the 3 min sampling interval fell within the limits of the standard curve. For ACL assay, 2.3 mL of reagent 1 (solvent and dilution reagent, methanol), 0.2 mL of reagent 2 (buffer solution), 25 μL of reagent 3 (photosensitizer: luminol 1 mmol L^−1), and 10 μL of standard or sample solution were mixed and measured. Luminol is used as a photosensitizer and as a detecting substance for free radicals. Trolox were used for the standard calibration curve from […].

- effect on COX activity (cyclooxygenase (COX)): strongly inhibited
Compound: CC(=O)Oc1ccccc1C(=O)O [aspirin, acetylsalicylic acid, reference compound]

Compound: C[C@H]1C[C@H]2[C@@H]3CCC4=CC(=O)C=C[C@]4(C)[C@@]3(F)[C@@H](O)C[C@]2(C)[C@@]1(O)C(=O)CO [betamethasone, reference compound]
- effect on TNFα-mediated p65 activation [1]: only partly prevented

Compound: C[C@]12CCC(=O)C=C1CC[C@@H]1[C@@H]2C(=O)C[C@@]2(C)[C@H]1CC[C@]2(O)C(=O)CO [cortisone]
- antioxidant capacity, PCL-ACL assay [2]: 0.13 µmol/g
